Data: patent US10934274B2, “Quinoline derivatives as TAM RTK inhibitors” (Qurient Co., Ltd., priority 2015, dated 2021)

What was measured:
[1] = system: Axl phosphorylation in transiently transfected HEK293T cells; experiment: Cellular Axl phosphorylation assay; assay type: cell-based; conditions: Homo sapiens, HEK-293T; HEK293T cells transfected with Axl, 1 hour compound treatment, Phospho-Axl vs Total-Axl
Summary of the method: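 Axl-RTK was overexpressed by transfection in HEK293T cells to drive trans-autophosphorylation; cells were exposed to test compound for 1 hour. Phospho-Axl and total Axl were captured in lysates and detected by MSD electrochemiluminescence. IC50 was set between the DMSO group and the empty-vector-transfected minimum.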

HCC827/ER cells = experiment: WST-1 cell viability assay in erlotinib-resistant cells; conditions: compound combined with Erlotinib at constant 1:1 ratio, 3 days, FBS 1%
Experimental: The killed cells were discarded and the remaining cells were cultured in a drug-free medium up to 80% confluence. Subsequently, cells were continuously exposed to increasing drug doses of up to 10 μM over a period of 8 months.
HCC827/ER cells were seeded in a 96-well plate with their respective media containing 10% FBS at 5000 cells/well. After seeding, the HCC827/ER cells were incubated for approximately 24 hours. […] The viability of the HCC827/ER cells was determined by adding WST-1 reagent according to Manufacturer's instructions (DoGenbio co., Ltd) and incubating for four hours. The plates were then read using an absorbance of 440 nm on Tecan Microplate reader (Infinite M200 pro, TECAN). The HCC827/ER cells' viability were calculated relative to vehicle (DMSO) control wells.

Mer = biological target: T1, Mer (Homo sapiens, UniProt Q12866); experiment: LanthaScreen Eu kinase binding assay, Mer; conditions: Tracer 236
T1 construct: purchased Life Technologies
T1 sequence (Q12866 21-999): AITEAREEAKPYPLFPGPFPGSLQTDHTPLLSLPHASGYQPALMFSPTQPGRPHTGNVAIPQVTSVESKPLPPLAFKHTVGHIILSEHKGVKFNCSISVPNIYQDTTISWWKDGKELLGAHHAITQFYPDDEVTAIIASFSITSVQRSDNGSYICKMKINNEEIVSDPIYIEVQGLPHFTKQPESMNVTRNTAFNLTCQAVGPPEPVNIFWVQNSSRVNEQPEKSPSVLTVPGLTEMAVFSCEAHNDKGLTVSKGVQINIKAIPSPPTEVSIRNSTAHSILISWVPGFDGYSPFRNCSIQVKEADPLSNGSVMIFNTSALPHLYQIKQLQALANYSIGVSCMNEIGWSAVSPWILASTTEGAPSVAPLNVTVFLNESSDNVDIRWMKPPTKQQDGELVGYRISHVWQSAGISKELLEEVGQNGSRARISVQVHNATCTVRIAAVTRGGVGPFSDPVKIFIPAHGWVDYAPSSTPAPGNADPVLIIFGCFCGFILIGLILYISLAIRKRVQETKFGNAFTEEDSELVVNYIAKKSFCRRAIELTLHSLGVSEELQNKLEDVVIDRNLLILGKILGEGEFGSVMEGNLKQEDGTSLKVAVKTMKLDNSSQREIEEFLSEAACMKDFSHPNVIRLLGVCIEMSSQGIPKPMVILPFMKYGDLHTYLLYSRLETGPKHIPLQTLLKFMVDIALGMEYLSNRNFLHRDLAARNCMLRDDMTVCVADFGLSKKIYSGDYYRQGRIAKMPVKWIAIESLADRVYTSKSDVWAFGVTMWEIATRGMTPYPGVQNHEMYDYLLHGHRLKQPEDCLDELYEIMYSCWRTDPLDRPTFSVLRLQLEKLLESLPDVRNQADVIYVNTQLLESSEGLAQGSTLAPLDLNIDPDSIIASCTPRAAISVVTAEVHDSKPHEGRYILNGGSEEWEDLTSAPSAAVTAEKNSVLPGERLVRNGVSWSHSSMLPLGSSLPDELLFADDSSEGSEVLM

Met = biological target: T2, Met (Homo sapiens, UniProt P08581); experiment: LanthaScreen Eu kinase binding assay, Met; conditions: Tracer 236, read-out: cMet kinase binding activity (Kd)
T2 construct: purchased Life Technologies
T2 sequence (P08581 25-1390): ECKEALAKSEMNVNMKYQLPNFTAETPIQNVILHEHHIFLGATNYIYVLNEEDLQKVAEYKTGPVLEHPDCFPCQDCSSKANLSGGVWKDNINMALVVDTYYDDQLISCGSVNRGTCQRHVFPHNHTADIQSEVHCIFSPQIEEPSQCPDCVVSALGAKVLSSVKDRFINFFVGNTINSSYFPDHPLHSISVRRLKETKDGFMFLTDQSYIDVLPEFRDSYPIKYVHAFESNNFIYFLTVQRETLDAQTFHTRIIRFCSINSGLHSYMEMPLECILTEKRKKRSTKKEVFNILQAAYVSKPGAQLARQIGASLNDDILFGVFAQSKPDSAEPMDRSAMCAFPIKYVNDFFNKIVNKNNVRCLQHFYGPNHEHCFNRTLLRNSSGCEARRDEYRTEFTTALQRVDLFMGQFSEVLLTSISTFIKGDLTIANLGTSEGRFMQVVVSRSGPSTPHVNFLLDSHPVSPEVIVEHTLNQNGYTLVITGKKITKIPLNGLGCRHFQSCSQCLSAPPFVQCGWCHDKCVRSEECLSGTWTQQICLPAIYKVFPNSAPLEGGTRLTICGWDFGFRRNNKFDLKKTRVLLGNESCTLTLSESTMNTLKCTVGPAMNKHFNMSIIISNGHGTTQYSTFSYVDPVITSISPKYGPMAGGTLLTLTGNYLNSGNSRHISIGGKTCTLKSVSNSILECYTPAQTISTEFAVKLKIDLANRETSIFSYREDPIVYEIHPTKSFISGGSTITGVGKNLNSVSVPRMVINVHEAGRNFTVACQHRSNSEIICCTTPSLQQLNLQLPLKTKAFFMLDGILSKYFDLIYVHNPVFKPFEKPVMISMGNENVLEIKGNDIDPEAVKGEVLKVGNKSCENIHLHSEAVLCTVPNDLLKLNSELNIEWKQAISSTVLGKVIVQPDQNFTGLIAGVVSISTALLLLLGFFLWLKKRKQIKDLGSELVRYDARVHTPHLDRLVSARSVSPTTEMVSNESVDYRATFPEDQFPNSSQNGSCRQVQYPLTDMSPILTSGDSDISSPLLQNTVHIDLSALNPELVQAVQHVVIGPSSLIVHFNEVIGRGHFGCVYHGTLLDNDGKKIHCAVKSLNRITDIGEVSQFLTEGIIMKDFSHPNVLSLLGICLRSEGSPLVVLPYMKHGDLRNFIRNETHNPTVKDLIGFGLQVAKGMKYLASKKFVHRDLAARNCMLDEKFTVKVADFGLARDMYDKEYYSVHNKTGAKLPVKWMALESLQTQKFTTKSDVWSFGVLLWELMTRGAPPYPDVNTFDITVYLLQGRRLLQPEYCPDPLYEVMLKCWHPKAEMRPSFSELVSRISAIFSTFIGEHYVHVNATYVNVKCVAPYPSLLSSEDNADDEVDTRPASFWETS

| Compound | IC50 [1] [nM] | Combination effect of compound and erlotinib on inhibition activity in Erlotinib-resistant cell-line (HCC827/ER cells) | Kd (Mer) [nM] | Kd (Met) [nM] |
| --- | --- | --- | --- | --- |
| CCOc1cn(CCOC(F)(F)F)nc1C(=O)Nc1ccc(Oc2ccnc3cc(OC)c(OC)cc23)cn1 [Compound 38] | < 100 | synergistic effect | < 100 | < 100 |
| CCOc1cn(-c2cccs2)nc1C(=O)Nc1ccc(Oc2ccnc3cc(OC)c(OC)cc23)cn1 [Compound 17] | < 100 |  | < 100 | < 100 |
| CCOc1cn(-c2ccsc2)nc1C(=O)Nc1ccc(Oc2ccnc3cc(OC)c(OC)cc23)cn1 [Compound 18] | < 100 |  | < 100 | 100 to 1000 |
| CCOc1cn(-c2nccnc2C(C)(O)CO)nc1C(=O)Nc1ccc(Oc2ccnc3cc(OC)c(OC)cc23)cc1F (stereo not shown) [Compound 229] | < 100 |  | < 100 | < 100 |
| COc1cc2nccc(Oc3ccc(NC(=O)c4nn(-c5ccc(F)cc5F)cc4OCC(F)(F)F)nc3)c2cc1OC [Compound 268] | < 100 |  | < 100 | < 100 |
| COc1cc2nccc(Oc3ccc(NC(=O)c4nn(-c5ccc(F)cc5Cl)cc4OCC4CC4)nc3)c2cc1OC [Compound 263] | < 100 |  | < 100 | < 100 |
| CCOc1cnn(C)c1C(=O)Nc1ccc(Oc2ccnc3cc(OC)c(OC)cc23)cn1 [Compound 30] | < 100 |  | 100 to 1000 | 100 to 1000 |
| CCOc1cn(-c2cnccn2)nc1C(=O)Nc1ccc(Oc2ccnc3cc(OC)c(OC)cc23)cn1 [Compound 36] | < 100 |  | < 100 | < 100 |
| COc1cc2c(Oc3ccc(NC(=O)c4nn(-c5cnc(N)cn5)cc4OCC(F)(F)F)nc3)ccnc2cc1OC(C)C [Compound 253] | < 100 |  | < 100 | < 100 |
| CCOc1cn(-c2ccco2)nc1C(=O)Nc1ccc(Oc2ccnc3cc(OC)c(OC)cc23)cn1 [Compound 57] | < 100 |  | < 100 | < 100 |
| COc1cc2nccc(Oc3ccc(NC(=O)c4nn(-c5ccc(F)cc5OC)cc4OCC4CC4)nc3)c2cc1OC [Compound 264] | < 100 |  | < 100 | < 100 |
| CCOc1cn(-c2cccnc2C)nc1C(=O)Nc1ccc(Oc2ccnc3cc(OC)c(OC)cc23)cn1 [Compound 23] | < 100 |  | < 100 | < 100 |
| CCOc1cn(-c2cnccc2CCN(C)C)nc1C(=O)Nc1ccc(Oc2ccnc3cc(OC)c(OC)cc23)cn1 [Compound 65] | < 100 |  | < 100 | < 100 |
| CCOc1cn(-c2cccnc2Cl)nc1C(=O)Nc1ccc(Oc2ccnc3cc(OC)c(OC)cc23)cn1 [Compound 19] | < 100 |  | < 100 | < 100 |
| COc1cc2nccc(Oc3ccc(NC(=O)c4nn(-c5cnc(N)cn5)cc4OCC(F)(F)F)nc3)c2cc1OC [Compound 248] | < 100 |  | < 100 | < 100 |
| COc1cc2nccc(Oc3ccc(NC(=O)c4nn(-c5cnccc5C(F)(F)F)cc4OCC4CC4)nc3)c2cc1OC [Compound 247] | < 100 |  | < 100 | < 100 |
| COc1cc2nccc(Oc3ccc(NC(=O)c4nn(-c5cccnc5)cc4OCC4CC4)nc3)c2cc1OC(F)(F)F [Compound 239] | < 100 |  | 100 to 1000 | 100 to 1000 |
| COc1cc2nccc(Oc3ccc(NC(=O)c4nn(-c5ccc(F)cc5Oc5ccccc5)cc4OCC4CC4)nc3)c2cc1OC [Compound 272] | < 100 |  | < 100 | 100 to 1000 |
| COc1cc2nccc(Oc3ccc(NC(=O)c4nn(-c5cnc(N)nc5)cc4OC(C)C)nc3)c2cc1OC [Compound 260] | < 100 |  | < 100 | < 100 |

| Compound | IC50 [1] [nM] | Combination effect of compound and erlotinib on inhibition activity in Erlotinib-resistant cell-line (HCC827/ER cells) | Kd (Mer) [nM] | Kd (Met) [nM] |
| --- | --- | --- | --- | --- |
| CCOc1cn(-c2cnc(N)nc2)nc1C(=O)Nc1ccc(Oc2ccnc3cc(OC(C)C)c(OC)cc23)cc1F [Compound 230] | < 100 |  | < 100 | ≥ 1000 |
| CCOc1cn(CC2CCO2)nc1C(=O)Nc1ccc(Oc2ccnc3cc(OC)c(OC)cc23)cn1 (stereo not shown) [Compound 48] | < 100 |  | < 100 | 100 to 1000 |
| CCOc1cn(-c2cnc(C#N)nc2)nc1C(=O)Nc1ccc(Oc2ccnc3cc(OC)c(OC)cc23)cn1 [Compound 55] | < 100 |  | 100 to 1000 | 100 to 1000 |
| COc1cc2nccc(Oc3ccc(NC(=O)c4nn(-c5cnc(N)nc5)cc4OC(F)F)nc3)c2cc1OC [Compound 254] | < 100 |  | < 100 | ≥ 1000 |
| CCOc1cnn(-c2ccco2)c1C(=O)Nc1ccc(Oc2ccnc3cc(OC)c(OC)cc23)cn1 [Compound 58] | < 100 |  | 100 to 1000 | 100 to 1000 |
| CCOc1sc(-c2cccnc2)nc1C(=O)Nc1ccc(Oc2ccnc3cc(OC)c(OC)cc23)cn1 [Compound 45] | < 100 |  | < 100 | < 100 |
| CCOc1cn(CCn2cccn2)nc1C(=O)Nc1ccc(Oc2ccnc3cc(OC)c(OC)cc23)cn1 [Compound 37] | 100 to 1000 |  | < 100 | 100 to 1000 |
| CCOc1oc(-c2cccnc2)nc1C(=O)Nc1ccc(Oc2ccnc3cc(OC)c(OC)cc23)cn1 [Compound 44] | < 100 |  | < 100 | < 100 |
| CCOc1cn(Cc2cnccc2C)nc1C(=O)Nc1ccc(Oc2ccnc3cc(OC)c(OC)cc23)cc1F [Compound 226] | < 100 |  | < 100 | < 100 |
| CCOc1cn(C2CCN(C)C2)nc1C(=O)Nc1ccc(Oc2ccnc3cc(OC)c(OC)cc23)cc1F (stereo not shown) [Compound 212] | < 100 |  | 100 to 1000 | 100 to 1000 |
| CCOc1cn(C2CCCN(C(N)=O)C2)nc1C(=O)Nc1ccc(Oc2ccnc3cc(OC)c(OC)cc23)cc1F (stereo not shown) [Compound 225] | 100 to 1000 |  | < 100 | 100 to 1000 |
| COc1cc2nccc(Oc3ccc(NC(=O)c4nn(-c5cnc(N)nc5)cc4OCC4CNC4)nc3)c2cc1OC [Compound 265] | ≥ 1000 |  | ≥ 1000 | ≥ 1000 |
| COc1cc2c(Oc3ccc(NC(=O)c4nn(-c5cnc(N)nc5)cc4OCC(F)(F)F)nc3)ccnc2cc1OC(C)C [Compound 257] | < 100 |  | < 100 | < 100 |
| CCOc1cn(Cc2cnccn2)nc1C(=O)Nc1ccc(Oc2ccnc3cc(OC)c(OC)cc23)cc1F [Compound 215] | < 100 |  | < 100 | < 100 |
| COc1cc2nccc(Oc3ccc(NC(=O)c4nn(-c5cccnc5)cc4OCC4CC4)nc3)c2cc1OC [Compound 255] | < 100 |  | < 100 | < 100 |
| CCOc1cn(-c2ccc(C#N)cn2)nc1C(=O)Nc1ccc(Oc2ccnc3cc(OC)c(OC)cc23)cn1 [Compound 43] | ≥ 1000 |  | ≥ 1000 | ≥ 1000 |
| CCOc1cnn(-c2cccs2)c1C(=O)Nc1ccc(Oc2ccnc3cc(OC)c(OC)cc23)cn1 [Compound 20] | < 100 |  | 100 to 1000 | 100 to 1000 |
| COc1cc2nccc(Oc3ccc(NC(=O)c4nn(-c5ccc(F)cc5N5CCOCC5)cc4OCC4CC4)nc3)c2cc1OC [Compound 266] | < 100 |  | < 100 | < 100 |
